Assay results as given in ChEMBL document CHEMBL1221195, “Post-translational enzyme activation in an animal via optimized conditional protein splicing” (2007).
One block for each compound: values may come before it. Active and inactive are the calls of the source. No cut-off for these calls is given here.

Columns and labels:
[1] = Induction of luciferase protein trans-splicing in Drosophila melanogaster S2 cells transfected with N-luc and C-luc and 2 copies of FRB assessed as increase in luciferase activity at 100 nM after 4 hrs relative to control; type: functional
S2 [2] = experiment: Induction of luciferase protein trans-splicing in Drosophila melanogaster S2 cells transfected with N-luc and C-lucFRB2 assessed as increase in luciferase activity at 100 nM after 4 hrs; type: functional, cell-based; details: TDE = time-dependent effect
[3] = Induction of luciferase protein trans-splicing in Drosophila melanogaster S2 cells transfected with N-luc and C-luc and FRB assessed as increase in luciferase activity at 100 nM after 4 hrs relative to control; type: functional
[4] = Induction of luciferase protein trans-splicing in Drosophila melanogaster S2 cells transfected with N-luc and C-luc and 3 copies of FRB assessed as increase in luciferase activity at 100 nM after 4 hrs relative to control; type: functional
S2 [5] = experiment: Induction of luciferase protein trans-splicing in Drosophila melanogaster S2 cells transfected with N-luc C1A mutant and C-luc N45A mutant assessed as increase in luciferase activity at 100 nM after 4 hrs by Western blot analysis; type: functional, cell-based
S2 [6] = experiment: Induction of luciferase protein trans-splicing in Drosophila melanogaster S2 cells transfected with N-luc and C-luc assessed as increase in luciferase activity at 100 nM after 4 hrs by Western blot analysis; type: functional, cell-based
Drosophila melanogaster [7] = experiment: Activation of luciferase in Drosophila melanogaster containing genomically integrated luciferase CPS at 100 uM by Western blot method; type: functional, organism-based
S2 [8] = experiment: Induction of luciferase protein trans-splicing in Drosophila melanogaster S2 cells transfected with N-luc and C-lucFRB2 assessed as increase in luciferase activity pretreated with ascomycin for 60 mins measured at 100 nM after 4 hrs; type: functional, cell-based
S2 [9] = experiment: Induction of luciferase protein trans-splicing in Drosophila melanogaster S2 cells transfected with N-luc and C-luc assessed as increase in luciferase activity after 4 hrs by Western blot analysis; type: functional, cell-based
Drosophila melanogaster [10] = experiment: Activation of luciferase in Drosophila melanogaster containing genomically integrated luciferase CPS at 100 uM; type: functional, organism-based
[11] = Induction of luciferase protein trans-splicing in Drosophila melanogaster S2 cells transfected with N-luc and C-luc assessed as increase in luciferase activity at 100 nM after 4 hrs at 28 degC relative to control; type: functional
S2 [12] = experiment: Induction of luciferase protein trans-splicing in Drosophila melanogaster S2 cells transfected with N-luc and C-luc assessed as increase in luciferase activity at 100 nM after 4 hrs at 25 degC; type: functional, cell-based
S2 [13] = experiment: Induction of luciferase protein trans-splicing in Drosophila melanogaster S2 cells transfected with N-luc and C-lucFRB2 assessed as increase in luciferase activity pretreated with ascomycin for 15 mins measured at 100 nM after 4 hrs; type: functional, cell-based
[14] = Induction of luciferase protein trans-splicing in Drosophila melanogaster S2 cells transfected with N-luc and C-luc assessed as increase in luciferase activity at 100 nM after 4 hrs at 21 degC relative to control; type: functional

Activity (Drosophila melanogaster [10]): Active
SMILES: CO[C@H]1C[C@@H]2CC[C@@H](C)[C@@](O)(O2)C(=O)C(=O)N2CCCC[C@H]2C(=O)O[C@H]([C@H](C)C[C@@H]2CC[C@@H](O)[C@H](OC)C2)CC(=O)[C@H](C)/C=C(\C)[C@@H](O)[C@@H](OC)C(=O)[C@H](C)C[C@H](C)/C=C/C=C/C=C/1C [SIROLIMUS]
Ratio [1]: 50 | Activity (S2 [2]): tde | Ratio [3]: 15 | Ratio [4]: 75 | Activity (S2 [5]): inactive | Activity (S2 [6]): Active | Activity (Drosophila melanogaster [7]): Active | Activity (S2 [8]): inactive | Activity (S2 [9]): Dose-dependent effect | Ratio [11]: 22 | Activity (S2 [12]): Active | Activity (S2 [13]): inactive | Ratio [14]: 6

SMILES: CO[C@H]1[C@@H](O)[C@H](C)C[C@H](C)/C=C/C=C/C=C(\C)[C@@H](c2c[nH]c3c(C)cccc23)C[C@@H]2CC[C@@H](C)[C@@](O)(O2)C(=O)C(=O)N2CCCC[C@H]2C(=O)O[C@H]([C@H](C)C[C@@H]2CC[C@@H](O)[C@H](OC)C2)C[C@H](O)[C@H](C)/C=C(\C)[C@H]1O
Activity (S2 [6]): inactive
